pIC50: −log10 of the molar value.
What was measured:
[1] = biological target: T1, human EP2 (PTGER2) (Homo sapiens, UniProt P43116); assay: EP2 antagonist assay (HEK-293 CNG membrane potential cAMP assay / 293T SEAP reporter assay, PGE2-stimulated); assay type: cell-based; conditions: EP2 antagonist activity; concentration for 50% inhibition of signal compared to DMSO
T1 construct: Cayman Chemical (Human EP2 Reporter Assay Kit)
Outline: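 HEK-293 CNG cells expressing human EP2: compound preincubated 15 min at RT, then PGE2 at 5 nM final, 30 min; membrane-potential dye fluorescence (ex 530, em 590 nm), background-subtracted, gave IC50. Alternatively, 293T cells reverse-transfected with EP2 and CRE-SEAP, compound plus 13 nM PGE2 for 6-8 h, SEAP luminescence.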

[2] = biological target: T2, human EP4 (EP4R) (Homo sapiens, UniProt P35408); assay: EP4 antagonist assay (HEK-293 CNG membrane potential cAMP assay / 293T SEAP reporter assay, PGE2-stimulated); assay type: cell-based; conditions: EP4 antagonist activity; concentration for inhibition of signal compared to DMSO
T2 construct: Cayman Chemical (Human EP4 Reporter Assay Kit)
Excerpt: 1. The HEK-293 CNG (Cyclic Nucleotide Gated) cell line expressing a modified CNG channel that leads to cell membrane depolarization in response to elevated intracellular cAMP levels, which can be measured using a fluorescent membrane potential dye, was engineered to express human EP2 (PTGER2) or EP4 (EP4R). The resulting cell line ACTOne™ PTGER2 or ACTOne™ EP4R as well as the fluorescent membrane potential dye were purchased from eEnzyme (Gaithersburg, MD, US) and used in this assay. Briefly, cells were plated at 1.2×10^4 cells/well in 20 μL DMEM supplemented with 2% Fetal Bovine Serum (FBS, VWR International), 1x Penicillin/Streptomycin (GenClone), 0.2 μg/mL puromycin (InvivoGen) and 50 μg/mL G418 (InvivoGen) on a 384 well plate (Greiner). The next day, cells were dye-loaded with 20 μL/well of 1x Dye-loading solution (eENZYME) following the manufacturer's instruction. After 2 hours of incubation at room temperature (RT) in the dark, a pre-read was made to obtain the background signals using CLARIOstar plate reader (BMG LABTECH, Germany) with the following filter settings: excitation=530/20 nm, emission=590/20 nm. Next, a serial dilution of compound (plus a DMSO control) were added to the plate (5 μL/well) and the reaction was incubated at RT for 15 min before adding 5 μL of PGE2 to every well for a final concentration of 5 nM. All wells were duplicated. The plate was then further incubated at RT for 30 min prior to a final read with the same machine settings. Background-subtracted signals were used to calculate IC50 values.
2. Human EP2 and EP4 Reporter Assay Kits were purchased from Cayman Chemical (Ann Arbor, MI, USA). The assay was performed following the provided User Manual. Briefly, a reverse transfection was performed by seeding 6.0×10^4 of 293T cells (ATCC) to each well of the provided Strip Plate coated with a proprietary transfection complex containing DNA constructs for expressing human EP2 or EP4 and a cAMP response element regulated secreted alkaline phosphatase (SEAP) reporter, in 200 μL DMEM supplemented with 2% FBS and incubated for 20-24 hours at 37° C. with 5% CO2. After the incubation, the culture medium was carefully removed, and the cells were replenished with 150 μL pre-warmed serum-free medium. PGE2 and test compounds were prepared together at 4x the desired final concentration, and 50 μL was added to each assigned well with the final concentration of 13 nM and 2 nM PGE2 for EP2 and EP4 assay, respectively. After 6-8 hours of incubation, 10 μL media from each well was transferred to corresponding well of a new plate, which was then sealed and incubated at 65° C. for 30 min. The plate was then cooled down to RT and 50 μL SEAP substrate was added to each well. Luminescence signal was measured using a CLARIOstar plate reader.
The IC50 value was determined as the concentration for […] inhibition of signal compared to DMSO (A: IC50≤100 nM; B: IC50 between 100 nM and 1,000 nM; C: IC50≥1,000 nM).

T1 sequence (P43116 whole entry): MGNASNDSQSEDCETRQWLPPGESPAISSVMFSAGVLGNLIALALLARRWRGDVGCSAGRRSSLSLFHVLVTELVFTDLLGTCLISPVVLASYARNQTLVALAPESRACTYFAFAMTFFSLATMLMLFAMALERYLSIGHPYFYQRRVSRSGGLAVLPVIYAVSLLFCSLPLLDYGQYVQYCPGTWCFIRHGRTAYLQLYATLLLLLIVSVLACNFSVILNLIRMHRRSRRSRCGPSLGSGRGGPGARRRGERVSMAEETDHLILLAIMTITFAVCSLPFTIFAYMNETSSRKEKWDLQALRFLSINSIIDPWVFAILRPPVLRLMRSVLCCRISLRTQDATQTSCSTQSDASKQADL
T2 sequence (P35408 whole entry): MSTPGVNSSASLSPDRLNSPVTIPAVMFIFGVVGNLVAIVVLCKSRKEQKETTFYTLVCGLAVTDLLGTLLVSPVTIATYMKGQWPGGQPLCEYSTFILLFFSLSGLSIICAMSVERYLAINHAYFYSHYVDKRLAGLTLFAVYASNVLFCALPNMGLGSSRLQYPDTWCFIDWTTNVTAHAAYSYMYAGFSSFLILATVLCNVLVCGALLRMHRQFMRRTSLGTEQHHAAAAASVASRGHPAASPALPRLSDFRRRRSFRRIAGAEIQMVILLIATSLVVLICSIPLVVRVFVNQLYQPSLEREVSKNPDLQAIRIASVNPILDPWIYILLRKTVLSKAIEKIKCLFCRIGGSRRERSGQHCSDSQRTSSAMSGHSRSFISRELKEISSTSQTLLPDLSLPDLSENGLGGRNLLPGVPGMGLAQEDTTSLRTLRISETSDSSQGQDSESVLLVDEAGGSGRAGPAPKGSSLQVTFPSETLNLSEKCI

Row | SMILES | pIC50 [1] | pIC50 [2]
1 | O=C(O)c1ccc(CNC(=O)c2cc(-c3ccc(F)cc3)cc3ccn(Cc4cccc(Cl)c4)c23)cc1 [Example 107, 4-((1-(3-chlorobenzyl)-5-(4-fluorophenyl)-1H-indole-7-carboxamido)methyl)benzoic acid] | > 7.00 | ≥ 7.00
2 | O=C(O)c1ccc(CNC(=O)c2cc(-c3ccccc3)cc3ccn(Cc4ccc5ccccc5n4)c23)cc1 [Example 141, 4-((5-phenyl-1-(quinolin-2-ylmethyl)-1H-indole-7-carboxamido)methyl)benzoic acid] | > 7.00 | ≥ 7.00
3 | O=C(O)c1ccc(CNC(=O)c2cc(-c3ccccc3)cc3cnn(Cc4ccc5ccccc5c4)c23)cc1 [Example 165, 4-((1-(naphthalen-2-ylmethyl)-5-phenyl-1H-indazole-7-carboxamido)methyl)benzoic acid] | > 7.00 | ≥ 7.00
4 | C[C@H](NC(=O)c1cc(-c2ccc(F)cc2)cc2cnn(Cc3ccc4ccccc4c3)c12)c1ccc(C(=O)O)cc1 [Example 168, (S)-4-(1-(5-(4-fluorophenyl)-1-(naphthalen-2-ylmethyl)-1H-indazole-7-carboxamido)ethyl)benzoic acid] | > 7.00 | ≥ 7.00
5 | O=C(O)c1ccc(CNC(=O)c2cc(-c3cc(F)cc(F)c3)cc3nnn(Cc4ccc(C(F)(F)F)cc4)c23)cc1 [Example 176, ((5-(3,5-difluorophenyl)-1-(4-(trifluoromethyl)benzyl)-1H-benzo[d][1,2,3]triazole-7-carboxamido)methyl)benzoic acid] | > 7.00 | ≥ 7.00
6 | O=C(O)c1ccc(CNC(=O)c2cc(-c3ccccc3)cc3cnn(Cc4ccc(C(F)(F)F)cc4)c23)cc1 [Example 97, 4-((5-phenyl-1-(4-(trifluoromethyl)benzyl)-1H-indazole-7-carboxamido)methyl)benzoic acid] | > 7.00 | ≥ 7.00
7 | O=C(O)c1ccc(CNC(=O)c2cc(-c3ccc(F)cc3)cc3cnn(Cc4ccc(-c5ccccc5)cc4)c23)cc1 [Example 191, 4-((1-([1,1′-biphenyl]-4-ylmethyl)-5-(4-fluorophenyl)-1H-indazole-7-carboxamido)methyl)benzoic acid] | > 7.00 | ≥ 7.00
8 | C[C@H](NC(=O)c1cc(-c2ccccc2)cc2cnn(Cc3cccc(C(F)(F)F)c3)c12)[C@H]1CC[C@H](C(=O)O)CC1 [Example 223, (1S,4r)-4-((S)-1-(5-phenyl-1-(3-(trifluoromethyl)benzyl)-1H-indazole-7-carboxamido)ethyl)cyclohexane-1-carboxylic acid] | ≤ 6.00 | ≥ 7.00
9 | O=C(O)c1ccc(CNC(=O)c2cc(-c3ccncc3)cc3ccn(Cc4ccc(C(F)(F)F)cc4)c23)cc1 [Example 80, 4-((5-(pyridin-4-yl)-1-(4-(trifluoromethyl)benzyl)-1H-indole-7-carboxamido)methyl)benzoic acid] | > 7.00 | ≥ 7.00
10 | O=C(O)c1ccc(CNC(=O)c2cc(-c3cccnc3)cc3ccn(Cc4ccc(C(F)(F)F)cc4)c23)cc1 [Example 78, 4-((5-(pyridin-3-yl)-1-(4-(trifluoromethyl)benzyl)-1H-indole-7-carboxamido)methyl)benzoic acid] | > 7.00 | ≥ 7.00
11 | O=C(O)c1ccc(CNC(=O)c2cc(-c3ccccc3)cc3cnn(Cc4ccc(-c5ccc(F)cc5)cc4)c23)cc1 [Example 184, 4-((1-((4′-fluoro-[1,1′-biphenyl]-4-yl)methyl)-5-phenyl-1H-indazole-7-carboxamido)methyl)benzoic acid] | > 7.00 | ≥ 7.00
12 | O=C(O)c1ccc(CNC(=O)c2cc(-c3ccc(F)cc3)cc3cnn(Cc4ccc(C(F)(F)F)cc4)c23)cc1 [Example 96, 4-((5-(4-fluorophenyl)-1-(4-(trifluoromethyl)benzyl)-1H-indazole-7-carboxamido)methyl)benzoic acid] | > 7.00 | ≥ 7.00
13 | O=C(O)c1ccc(CNC(=O)c2cc(-c3ccc(F)c(F)c3)cc3ccn(Cc4ccc(-c5ccccc5)cc4)c23)cc1 [Example 188, 4-((1-([1,1′-biphenyl]-4-ylmethyl)-5-(3,4-difluorophenyl)-1H-indole-7-carboxamido)methyl)benzoic acid] | > 7.00 | ≥ 7.00
14 | O=C(O)c1ccc(CNC(=O)c2cc(-c3ccccc3)cc3ccn(Cc4ccc(-c5ccccc5)cc4)c23)cc1 [Example 147, 4-((1-([1,1′-biphenyl]-4-ylmethyl)-5-phenyl-1H-indole-7-carboxamido)methyl)benzoic acid] | > 7.00 | ≥ 7.00
15 | CC(C)(O)c1cccc(-c2cc(C(=O)NCc3ccc(C(=O)O)cc3)c3c(ccn3Cc3ccc(C(F)(F)F)cc3)c2)c1 [Example 85, 4-((5-(3-(2-hydroxypropan-2-yl)phenyl)-1-(4-(trifluoromethyl)benzyl)-1H-indole-7-carboxamido)methyl)benzoic acid] | 6.00 to 7.00 | ≥ 7.00
16 | O=C(O)c1ccc(CNC(=O)c2cc(-c3cc(F)cc(F)c3)cc3ccn(Cc4ccc(-c5ccccc5)cc4)c23)cc1 [Example 149, 4-((1-([1,1′-biphenyl]-4-ylmethyl)-5-(3,5-difluorophenyl)-1H-indole-7-carboxamido)methyl)benzoic acid] | > 7.00 | ≥ 7.00
17 | C[C@H](NC(=O)c1cc(-c2ccc(F)cc2)cc2ccn(Cc3ccc(-c4ccccc4)cc3)c12)c1ccc(C(=O)O)cc1 [Example 151, (S)-4-(1-(1-([1,1′-biphenyl]-4-ylmethyl)-5-(4-fluorophenyl)-1H-indole-7-carboxamido)ethyl)benzoic acid] | > 7.00 | ≥ 7.00
18 | O=C(O)c1ccc(CNC(=O)c2cc(-c3ccc(F)cc3)cc3ccn(Cc4cccc(C(F)(F)F)c4)c23)cc1 [Example 124, 4-((5-(4-fluorophenyl)-1-(3-(trifluoromethyl)benzyl)-1H-indole-7-carboxamido)methyl)benzoic acid] | > 7.00 | ≥ 7.00
19 | O=C(O)c1ccc(CNC(=O)c2ccc(Nc3cc(F)cc(F)c3)c3ccn(Cc4ccc(C(F)(F)F)cc4)c23)cc1 [Example 69, 4-((4-((3,5-difluorophenyl)amino)-1-(4-(trifluoromethyl)benzyl)-1H-indole-7-carboxamido)methyl)benzoic acid] | > 7.00 | 6.00 to 7.00
20 | C[C@H](NC(=O)c1cc(-c2ccc(F)cc2)cc2nnn(Cc3ccc(C(F)(F)F)cc3)c12)c1ccc(C(=O)O)cc1 [Example 180, (S)-4-(1-(5-(4-fluorophenyl)-1-(4-(trifluoromethyl)benzyl)-1H-benzo[d][1,2,3]triazole-7-carboxamido)ethyl)benzoic acid] | > 7.00 | ≥ 7.00
21 | O=C(O)c1ccc(CNC(=O)c2cc(-c3ccccc3F)cc3ccn(Cc4ccc(C(F)(F)F)cc4)c23)cc1 [Example 87, 4-((5-(2-fluorophenyl)-1-(4-(trifluoromethyl)benzyl)-1H-indole-7-carboxamido)methyl)benzoic acid] | > 7.00 | ≥ 7.00
22 | C[C@H](NC(=O)c1ccc(Nc2ccccc2)c2ccn(Cc3ccc(C(F)(F)F)cc3)c12)c1ccc(C(=O)O)cc1 [Example 74, (S)-4-(1-(4-(phenylamino)-1-(4-(trifluoromethyl)benzyl)-1H-indole-7-carboxamido)ethyl)benzoic acid] | > 7.00 | ≥ 7.00
